According to patent USRE39138E1, “Monoclonal antibody specific for advanced glycosylation endproducts in biological samples” (Alteon Incorporated, priority 1994, dated 2006):

Legend:
Hb-AGE = settings: diabetic patients treated for 28 days; cited from earlier work
mAb 4G9 = assay: competition ELISA: browned compounds compete with plate-bound BSA-AGE for mAb 4G9; format: binding, murine; settings: concentration based on the original proteins or peptides
Method: Production of AGE proteins. All proteins and peptides were browned with glucose, ribose or glucose 6-phosphate in 300 mM sodium phosphate buffer, pH 7.4, for 8-12 weeks at 37° C. The control proteins were treated the same way except the sugars were omitted.
The competition ELISA was performed by pre-coating microtiter plates with BSA-AGE and blocking with Assay Buffer. The plates was washed and mAb 4G9 and increasing concentrations of the competitors listed in Table 1 were added and simultaneously incubated for 1 hr at 37° C. The unbound materials were removed by extensive washing and the bound mAb was detected with alkaline phosphatase labeled anti-mouse antibodies similar to direct ELISA. All washes were in TBS-T wash solution: all incubations proceeded for 1 hr at 37° C.

[1] = protein or peptide browned with ribose

Row | Compound | levels of Hb-AGE at the end of the treatment period (Hb-AGE) | IC50 (mAb 4G9; [1]) [µM] | IC50 (mAb 4G9; protein or peptide browned with glucose) [µM]
1 | N=C(N)NN [aminoguanidine] | significantly decreased | – | –
2 | Hemoglobin | – | 200 | –
3 | Arg-lys | – | 50 | 250
